Like-named read-outs stand apart in the source and are kept apart here.

Common to all, as to format: biochemical
Assay [1] addresses CDK4/Cyclin-D1 kinase complex (Homo sapiens, UniProt P11802). As to the kind of experiment: CDK4 ELISA based assay, Rb Ser780 phosphorylation. The source says: The compounds that inhibit the CDK4 kinase activity would inhibit the signal output of the assay.
In general terms: An ELISA detects its analyte on a solid surface through an enzyme-linked reagent.

Assay [2] has as its target CDK2/Cyclin-A kinase complex (Homo sapiens, UniProt P24941). As to the kind of experiment: CDK2 IMAP fluorescence polarization assay. The essentials:
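Fluorescence polarization (IMAP) using purified active CDK2/Cyclin-A complex with a TAMRA-tagged Histone H1-derived peptide substrate; phosphorylated peptide bound by a metal-containing reagent raises polarization. Inhibition read as reduced fluorescence polarization signal.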
On the technique in general: In fluorescence polarisation assays a small probe gives low polarisation when free and higher when bound to something large.

In another assay the target is CDK4 (Homo sapiens, UniProt P11802). Kind of assay: CDK4 HTRF assay. As to conditions: Table E; read-out: CDK4 HTRF/IC50 [umol l − 1]. For orientation: In TR-FRET formats the signal depends on donor and acceptor labels being close together.
For the next assay, the target named is hCDK1/B (Homo sapiens, UniProt P06493). As to the kind of experiment: hCDK1/B assay. As to conditions: Table E; read-out: hCDK1/B/IC50 [umol l − 1].
The mark [3] stands for this setting: Table E, read-out: CDK4 ELISA assay IC50 [umol l−].
Where [4] appears, read: Table E, read-out: CDK2cyA IMAP/IC50 [umol l − 1].

Sequence of CDK4 (P11802 whole entry): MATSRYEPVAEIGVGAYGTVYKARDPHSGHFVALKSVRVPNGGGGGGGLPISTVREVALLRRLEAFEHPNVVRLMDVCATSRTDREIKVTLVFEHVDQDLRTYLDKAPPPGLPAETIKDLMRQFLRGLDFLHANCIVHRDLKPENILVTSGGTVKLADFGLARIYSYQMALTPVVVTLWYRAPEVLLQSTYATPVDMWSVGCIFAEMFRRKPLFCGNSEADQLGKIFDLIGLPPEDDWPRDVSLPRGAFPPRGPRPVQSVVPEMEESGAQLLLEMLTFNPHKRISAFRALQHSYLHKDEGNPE
Sequence of CDK4 (P24385 whole entry partner): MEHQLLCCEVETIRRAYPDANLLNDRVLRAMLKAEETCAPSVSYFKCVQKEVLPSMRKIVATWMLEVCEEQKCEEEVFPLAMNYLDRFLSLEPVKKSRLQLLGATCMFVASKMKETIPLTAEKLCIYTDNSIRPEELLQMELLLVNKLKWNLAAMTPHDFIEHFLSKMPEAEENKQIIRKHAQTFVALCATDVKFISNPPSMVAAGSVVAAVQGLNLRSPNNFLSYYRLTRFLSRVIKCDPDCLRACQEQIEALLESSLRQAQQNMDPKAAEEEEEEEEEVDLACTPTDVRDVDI
Sequence of CDK4/Cyclin-D1 kinase complex (P11802 whole entry): as the sequence (P11802 whole entry) above
Sequence of CDK4/Cyclin-D1 kinase complex (P24385 whole entry partner): as the sequence (P24385 whole entry partner) above
Sequence of hCDK1/B (P06493 whole entry): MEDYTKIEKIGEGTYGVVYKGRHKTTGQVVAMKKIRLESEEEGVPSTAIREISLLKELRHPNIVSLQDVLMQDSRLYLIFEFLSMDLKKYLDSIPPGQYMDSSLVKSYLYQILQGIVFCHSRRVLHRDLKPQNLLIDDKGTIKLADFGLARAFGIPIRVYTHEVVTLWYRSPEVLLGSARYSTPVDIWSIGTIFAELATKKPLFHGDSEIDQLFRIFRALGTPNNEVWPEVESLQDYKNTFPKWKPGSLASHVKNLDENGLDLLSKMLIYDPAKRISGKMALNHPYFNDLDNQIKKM
Sequence of hCDK1/B (P14635 whole entry partner): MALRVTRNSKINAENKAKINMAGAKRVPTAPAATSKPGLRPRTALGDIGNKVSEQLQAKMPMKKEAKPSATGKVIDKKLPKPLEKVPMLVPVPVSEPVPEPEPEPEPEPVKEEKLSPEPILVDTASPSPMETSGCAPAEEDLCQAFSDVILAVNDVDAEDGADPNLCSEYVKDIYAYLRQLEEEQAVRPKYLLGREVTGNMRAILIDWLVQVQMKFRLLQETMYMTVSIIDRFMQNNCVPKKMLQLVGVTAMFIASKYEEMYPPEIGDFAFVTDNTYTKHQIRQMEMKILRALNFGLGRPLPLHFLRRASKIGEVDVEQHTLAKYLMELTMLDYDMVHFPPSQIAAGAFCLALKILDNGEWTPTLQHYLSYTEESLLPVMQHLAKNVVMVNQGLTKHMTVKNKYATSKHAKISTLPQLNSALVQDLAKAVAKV

Regarding `CCC(CC)N1C(=O)C(C)(C)c2cnc(Nc3ccc(N4CCN(C(=O)OC(C)(C)C)CC4)cc3)nc21`, the IC50 in assay [1] (Table C, read-out: CDK4 IC50) was over 10 µM.
`CCC(CC)n1ccc2cnc(Nc3ccc(C4CCCN(C(C)=O)C4)cc3)nc21` (stereo not shown) [Example 216]: the IC50 in assay [1] (setting [3]) and in assay [2] (setting [4]) was under 10 µM each time.
For `CCC(CC)n1ccc2cnc(Nc3ccc(C4CCN(C(C)=O)CC4)cc3)nc21` [Example 214], the IC50 is under 10 µM in assay [1] (setting [3]) and over 10 µM in assay [2] (setting [4]).
The corresponding values for `CCOC(OCC)c1cc2cnc(Nc3ccc(N4CCN(C(C)=O)CC4)cc3)nc2n1C(CC)CC` [Example 360, 1-(4-{4-[6-Diethoxymethyl-7-(1-ethyl-propyl)-7H-pyrrolo[2,3-d]pyrimidin-2-ylamino]-phenyl}-piperazin-1-yl)-ethanone] are over 10 µM and over 10 µM.
With `CCC(CC)N1C(=O)C(C)(C)c2cnc(Nc3ccc(N4CCN(C(C)=O)CC4)cn3)nc21`, the IC50 in assay [1] (Table C, read-out: CDK4 IC50) was over 10 µM; in assay [2] (Table C, read-out: CDK2 IC50), over 10 µM.
Turning to `CCC(CC)n1ccc2cnc(Nc3ccc(N4CCN(C)CC4)c(F)c3)nc21` [Example 208], the IC50 in assay [1] (setting [3]) and in assay [2] (setting [4]) was under 10 µM in each case.
Take `CCC(CC)n1c(C)cc2cnc(Nc3ccc(N4CCN(C(C)=O)CC4)cc3)nc21` [Example 330]: the IC50 in assay [1] (setting [3]) is over 10 µM; in assay [2] (setting [4]), under 1 µM.
Regarding `Cc1cn(C2CCCC2)c2nc(Nc3ccc(N4CCNCC4)cc3)ncc12` [drawing 150], the IC50 in assay [1] (Table C, read-out: CDK4 IC50) is under 10 µM.
Regarding `CCC(CC)n1ccc2cnc(NC3CCCC3)nc21` [Example 210], the IC50 in assay [1] (setting [3]) was over 10 µM.
For the compound `CCC(CC)N1C(=O)Cc2cnc(Nc3ccc(N4CCNCC4)cc3)nc21`, the IC50 in assay [1] (Table C, read-out: CDK4 IC50) was under 10 µM.
`CCC(CC)n1cc(C)c2cnc(Nc3ccc(C(=O)NC4CCCC4)cc3)nc21` [Example 319]: the IC50 in assay [1] (setting [3]) is over 10 µM.
With `CCC(CC)n1cc(C)c2cnc(Nc3ccc(N4CCN(C(C)=O)CC4)cc3)nc21` [Example 263, 1-(4-{4-[7-(1-Ethyl-propyl)-5-methyl-7H-pyrrolo[2,3-d]pyrimidin-2-ylamino]-phenyl}-piperazin-1-yl)-ethanone], the IC50 in assay [1] (setting [3]) and in assay [2] (setting [4]) was over 10 µM each time.
With `CCC(CC)n1cc(C)c2cnc(Nc3ccc(N4CCN(C)CC4)cc3)nc21` [Example 264], the IC50 in assay [1] (setting [3]) and in assay [2] (setting [4]) was over 10 µM in each case.
Regarding `Cc1cn(C2CCCCC2)c2nc(Nc3ccc(N4CCN(C)CC4)cc3)ncc12` [Example 269], the IC50 is under 10 µM in assay [1] (setting [3]) and over 10 µM in assay [2] (setting [4]).
Consider `CCC(CC)n1ccc2cnc(NC3CC3)nc21` [Example 218], for which the IC50 in assay [1] (setting [3]) was over 10 µM.
`CCC(CC)N1C(=O)C(C)(C)c2cnc(Nc3ccc(N4CCNCC4)cn3)nc21`: the IC50 was under 10 µM in assay [1] (Table C, read-out: CDK4 IC50) and over 10 µM in assay [2] (Table C, read-out: CDK2 IC50).
In the case of `CCC(CC)n1ccc2cnc(Nc3ccc(N4CCN(C(C)=O)CC4)cn3)nc21` [Example 206], the IC50 in assay [1] (setting [3]) and in assay [2] (setting [4]) was over 10 µM in each case.
For the compound `CCC(CC)n1cc(C(=O)OC)c2cnc(Nc3ccc(N4CCN(C(C)=O)CC4)cc3)nc21` [Example 428], in assay [1] (setting [3]), the IC50 was over 10 µM.
For `CCC(CC)n1c(C)cc2cnc(Nc3ccc(C(=O)NC4CCCC4)cc3)nc21` [Example 331], the values for the IC50 in assay [1] (setting [3]) and in assay [2] (setting [4]) were over 10 µM and under 1 µM, respectively.
`Cc1c(-c2cnco2)n(C2CCCC2)c2nc(Nc3ccc(N4CCNCC4)cc3)ncc12` [Example 398]: the IC50 (in assay [2] (setting [4]); at CDK4; on hCDK1/B) was under 1 µM each time.
For the compound `CC1(C)C(=O)N(C2CCCC2)c2nc(Nc3ccc(N4CCNCC4)cn3)ncc21`, in assay [1] (Table C, read-out: CDK4 IC50), the IC50 is under 10 µM.
Regarding `CN(C)C(=O)c1cc2cnc(Nc3ccc(CN4CCNCC4)cc3)nc2n1C1CCCC1` [Example 339], the IC50 in assay [2] (setting [4]) was over 10 µM; on CDK4 it was under 1 µM; on hCDK1/B it was over 10 µM.
On to `OC[C@@H]1CCC(n2ccc3cnc(Nc4ccc(N5CCNCC5)cc4)nc32)C1` (stereo partly shown) [Example 250], for which the IC50 (in assay [2] (setting [4]); on CDK4; at hCDK1/B) was under 1 µM each time.
With `Cc1cn(C2CCCC2)c2nc(Nc3ccc(CCN4CCOCC4)cc3)ncc12` [Example 291], the IC50 in assay [2] (setting [4]) is over 10 µM; on CDK4, under 1 µM; on hCDK1/B, under 10 µM.
The corresponding values for `Cc1cn(C2CCC(O)C2)c2nc(Nc3ccc(CN4CCOCC4)cc3)ncc12` (stereo not shown) [Example 315] are under 1 µM, under 1 µM and under 10 µM.
`Cc1c(C#N)n(C2CCCC2)c2nc(Nc3ccc(N4CCC(N(C)C)CC4)cn3)ncc12` [Example 394]: the figures for the IC50 (in assay [2] (setting [4]); on CDK4; at hCDK1/B) were over 10 µM, under 1 µM and over 15 µM, respectively.
`Cc1c(-c2cnco2)n(C2CCCC2)c2nc(Nc3ccc(CN4CCOCC4)cc3)ncc12` [Example 401]: the IC50 (in assay [2] (setting [4]); at CDK4; on hCDK1/B) was under 1 µM each time.
With `OC1CCC(n2ccc3cnc(Nc4ccc(N5CCNCC5)cc4)nc32)C1` (stereo not shown) [Example 247], the IC50 (in assay [2] (setting [4]); at CDK4; on hCDK1/B) was under 1 µM in each case.
On to `CCC(CC)n1c(C(=O)Nc2ccc(C)cc2)cc2cnc(Nc3ccc(N4CCNCC4)cc3)nc21` [Example 348], for which the IC50 in assay [2] (setting [4]) is over 15 µM; at CDK4 it was under 1 µM; on hCDK1/B it was over 15 µM.
Take `CC(=O)N1CCN(c2ccc(Nc3ncc4ccn(C5CCC(C)C5)c4n3)cc2)CC1` (stereo not shown) [Example 238]: the IC50 in assay [2] (setting [4]) is under 10 µM; at CDK4 it was under 1 µM; on hCDK1/B it was under 10 µM.
Consider `CCC(CC)n1c(C(=O)Nc2cc[nH]n2)cc2cnc(Nc3ccc(N4CCNCC4)cc3)nc21` [Example 356], for which the IC50 was under 10 µM in assay [2] (setting [4]), under 1 µM on CDK4 and under 10 µM at hCDK1/B.
Take `CN(C)C(=O)c1cc2cnc(Nc3ccc(N4CCN(C(=O)OC(C)(C)C)CC4)cc3)nc2n1C1CCCC1` [Example 463]: the IC50 in assay [2] (setting [4]) was under 10 µM; on CDK4, under 1 µM; at hCDK1/B it was under 10 µM.
With `Cc1cn(C2CCCC2)c2nc(Nc3ccccc3)ncc12` [Example 277], the IC50 (in assay [2] (setting [4]); on CDK4; on hCDK1/B) was over 10 µM in each case.
As for `Cc1c(-c2cnco2)n(C2CCCCCC2)c2nc(Nc3ccc(N4CCNCC4)cn3)ncc12` [Example 400], the IC50 (in assay [2] (setting [4]); on CDK4; at hCDK1/B) was under 1 µM in each case.
Turning to `CC1CCC(n2ccc3cnc(Nc4ccc(N5CCNCC5)cc4)nc32)C1` (stereo not shown) [Example 239], the IC50 was under 10 µM in assay [2] (setting [4]), under 1 µM at CDK4 and under 1 µM at hCDK1/B.
For `CCC(CC)n1c(C(=O)N(C)C)cc2cnc(Nc3ccc(CN4CCNCC4)cc3)nc21` [Example 342], the IC50 in assay [2] (setting [4]) is under 10 µM; at CDK4, under 1 µM; at hCDK1/B, under 10 µM.
In the case of `Cc1cn(C2CCCC2)c2nc(Nc3ccncn3)ncc12` [Example 304], the IC50 (in assay [2] (setting [4]); on CDK4; at hCDK1/B) was over 10 µM each time.
As for `Cc1nnc(-c2c(C)c3cnc(Nc4ccc(N5CCNCC5)cn4)nc3n2C2CCCC2)o1` [Example 386, [7-Cyclopentyl-5-methyl-6-(5-methyl-[1,3,4]oxadiazol-2-yl)-7H-pyrrolo[2,3d]pyrimidin-2-yl]-(5-piperazin-1-yl-pyridin-2-yl)-amine], the IC50 in assay [2] (setting [4]) was under 10 µM; on CDK4, under 1 µM; on hCDK1/B, under 10 µM.
As to `CCC(CC)n1ccc2cnc(Nc3ccc(C4CCCN(C(=O)CC#N)C4)cc3)nc21` (stereo not shown) [Example 215], in assay [1] (setting [3]), the IC50 is over 10 µM.
For `CCC(CC)n1cc(C(=O)OC)c2cnc(Nc3ccc(N4CCNCC4)cc3)nc21` [Example 429], the IC50 in assay [1] (setting [3]) is over 10 µM.
Turning to `CCC(CC)n1ccc2cnc(Nc3ccc(C(=O)NC4CCCC4)cc3)nc21` [Example 217], the IC50 in assay [1] (setting [3]) is over 10 µM.
Turning to `CCC(CC)n1c(COC)cc2cnc(Nc3ccc(C(=O)NC4CCCC4)cc3)nc21` [Example 380], the IC50 in assay [1] (setting [3]) was over 10 µM.
As to `Cc1c(-c2cnco2)n(C2CCCC2)c2nc(Nc3ccc(CN4CCNCC4)cn3)ncc12` [Example 403], the IC50 in assay [2] (setting [4]) was under 10 µM; at CDK4, under 1 µM; on hCDK1/B, under 10 µM.
For the compound `Cc1c(C#N)n(C2CCCC2)c2nc(Nc3ccc(N4CCNCC4)cn3)ncc12` [Example 393], the IC50 is under 10 µM in assay [2] (setting [4]), under 1 µM on CDK4 and under 10 µM on hCDK1/B.
As for `Cc1cn(C2CCCC2)c2nc(Nc3ccc(CN4CCNC(=O)C4)cc3)ncc12` [Example 290], the IC50 in assay [2] (setting [4]) was under 10 µM; on CDK4, under 1 µM; at hCDK1/B it was under 10 µM.
As to `CCC(CC)n1c(C(=O)Nc2ccc(OC)cc2)cc2cnc(Nc3ccc(N4CCNCC4)cc3)nc21` [Example 347], the IC50 in assay [2] (setting [4]) was over 10 µM; at CDK4, under 1 µM; at hCDK1/B it was over 10 µM.
`CCC(CC)n1c(CNCCc2cc3ccccc3[nH]2)cc2cnc(Nc3ccc(N4CCN(C(C)=O)CC4)cc3)nc21` [Example 368]: the figures for the IC50 (in assay [2] (setting [4]); on CDK4; on hCDK1/B) were under 1 µM, under 1 µM and under 10 µM, respectively.
With `CCC(CC)N1C(=O)C(C)(C)c2cnc(Nc3ccc(N4CCNCC4)cc3)nc21` [drawing 162], the IC50 in assay [1] (Table C, read-out: CDK4 IC50) was under 10 µM.
Consider `Cc1cn(C2CCCC2)c2nc(Nc3ccc(CN4CCNCC4)cc3)ncc12` [Example 314], for which the IC50 in assay [2] (setting [4]) was under 10 µM; on CDK4, under 1 µM; at hCDK1/B, under 10 µM.
Take `Cc1c(C#N)n(C2CCCC2)c2nc(Nc3ccc(N4CCC(N(C)C)CC4)cc3)ncc12` [Example 395]: the IC50 (in assay [2] (setting [4]); on CDK4; at hCDK1/B) was under 1 µM each time.

The values above are taken from US20120207763A1, “PYRROLOPYRIMIDINE COMPOUNDS AND THEIR USES” (ASTEX THERAPEUTICS LIMITED, priority 2006, published 2012).
